In publication PMC6804253, “Predicting and Experimentally Validating Hot-Spot Residues at Protein–Protein Interfaces” (ACS Chemical Biology, 2019):
Read-outs that look alike come from different tables or passages of the source.

Legend:
[1] = tested on: PPIs of the SKEMPI data set (by PDBID); assay: SKEMPI experimental ΔΔG, single mutations to alanine; type: binding; conditions: for sk_class: class of the SKEMPI experimental ΔΔG
[2] = tested on: PPIs of the SKEMPI data set (by PDBID); conditions: ref SKEMPI, cited from earlier work; for sk_ddG_kJ: SKEMPI experimental ΔΔG of binding, complex by PDBID; for sk_ddG_kJ / sk_ddG_kJ (SKEMPI experimental ΔΔG, mutation to alanine) / sk_ddG_kJ (SKEMPI experimental ΔΔG): single mutation to alanine; for sk_ddG_kJ (SKEMPI experimental ΔΔG, mutation to alanine): PPI given by PDBID, r_group DERKH; for sk_ddG_kJ (SKEMPI experimental ΔΔG of binding, mutation to alanine): single mutation to alanine in the complex of the given PDBID
[3] = class by ΔΔG threshold 4.184 kJ/mol, ref SKEMPI
[4] = complex given by PDBID, mutation by mut_pdb
[5] = Positive / Neutral / Negative by ΔΔG threshold 4.184 kJ/mol, ref SKEMPI

1A4Y EB108A
sk_class ([1]; ref SKEMPI): Neutral (neutral (little effect) 4.184 kJ/mol < ΔΔG > −4.184 kJ/mol) | sk_ddG_kJ [2]: -1.34 kJ

1A4Y HB8A
sk_class (class of the SKEMPI experimental ΔΔG) [1, 3]: Neutral (neutral (little effect) 4.184 kJ/mol < ΔΔG > −4.184 kJ/mol) | sk_ddG_kJ (SKEMPI experimental ΔΔG, mutation to alanine) ([2]; sheet sortedByGroup): 3.77 kJ

1A4Y HB13A
sk_class (class of the SKEMPI experimental ΔΔG) [1, 3]: Neutral (neutral (little effect) 4.184 kJ/mol < ΔΔG > −4.184 kJ/mol) | sk_ddG_kJ (SKEMPI experimental ΔΔG, mutation to alanine) ([2]; sheet sortedByGroup): -1.42 kJ

1A4Y HB84A
sk_class ([1]; ref SKEMPI): Neutral (neutral (little effect) 4.184 kJ/mol < ΔΔG > −4.184 kJ/mol) | sk_ddG_kJ [2]: 0.71 kJ

1A4Y NB68A
sk_class [1]: Neutral (neutral (little effect) 4.184 kJ/mol < ΔΔG > −4.184 kJ/mol) | sk_ddG_kJ (SKEMPI experimental ΔΔG) ([2]; complex given by PDBID, residue group SQNT): 0.50 kJ

1A4Y QB12A
sk_class [1]: Neutral (neutral (little effect) 4.184 kJ/mol < ΔΔG > −4.184 kJ/mol) | sk_ddG_kJ (SKEMPI experimental ΔΔG) [2, 4]: 1.26 kJ

1A4Y RB5A
sk_class (class of the SKEMPI experimental ΔΔG) [1, 3]: Positive (positive (a hot residue) ΔΔG ≥ 4.184 kJ/mol) | sk_ddG_kJ (SKEMPI experimental ΔΔG, mutation to alanine) ([2]; sheet sortedByGroup): 9.67 kJ

1A4Y RB31A
sk_class (class of the SKEMPI experimental ΔΔG) [1, 3]: Neutral (neutral (little effect) 4.184 kJ/mol < ΔΔG > −4.184 kJ/mol) | sk_ddG_kJ (SKEMPI experimental ΔΔG, mutation to alanine) ([2]; sheet sortedByGroup): 1.05 kJ

1A4Y RB32A
sk_class ([1]; ref SKEMPI): Neutral (neutral (little effect) 4.184 kJ/mol < ΔΔG > −4.184 kJ/mol) | sk_ddG_kJ [2]: 3.77 kJ

1A4Y RB33A
sk_class ([1]; ref SKEMPI): Neutral (neutral (little effect) 4.184 kJ/mol < ΔΔG > −4.184 kJ/mol) | sk_ddG_kJ [2]: 1.38 kJ

1A4Y RB66A
sk_class ([1]; ref SKEMPI): Neutral (neutral (little effect) 4.184 kJ/mol < ΔΔG > −4.184 kJ/mol) | sk_ddG_kJ [2]: 0.84 kJ

1A4Y RB70A
sk_class ([1]; ref SKEMPI): Neutral (neutral (little effect) 4.184 kJ/mol < ΔΔG > −4.184 kJ/mol) | sk_ddG_kJ [2]: -1.05 kJ

1A4Y WB89A
sk_class [1]: Neutral (neutral (little effect) 4.184 kJ/mol < ΔΔG > −4.184 kJ/mol) | sk_ddG_kJ (SKEMPI experimental ΔΔG) ([2]; sheet sortedByGroup, r_group FAMILYVW): 0.96 kJ

1A22 CA182A
sk_class [1]: Positive (positive (a hot residue) ΔΔG ≥ 4.184 kJ/mol) | sk_ddG_kJ (SKEMPI experimental ΔΔG) [2, 4]: 4.23 kJ

1A22 DA171A
sk_class (class of the SKEMPI experimental ΔΔG) [1, 3]: Neutral (neutral (little effect) 4.184 kJ/mol < ΔΔG > −4.184 kJ/mol) | sk_ddG_kJ (SKEMPI experimental ΔΔG, mutation to alanine) ([2]; sheet sortedByGroup): 3.35 kJ

1A22 EA66A
sk_class (class of the SKEMPI experimental ΔΔG) [1, 3]: Neutral (neutral (little effect) 4.184 kJ/mol < ΔΔG > −4.184 kJ/mol) | sk_ddG_kJ (SKEMPI experimental ΔΔG, mutation to alanine) ([2]; sheet sortedByGroup): 1.80 kJ

1A22 EA174A
sk_class (class of the SKEMPI experimental ΔΔG) [1, 3]: Neutral (neutral (little effect) 4.184 kJ/mol < ΔΔG > −4.184 kJ/mol) | sk_ddG_kJ (SKEMPI experimental ΔΔG, mutation to alanine) ([2]; sheet sortedByGroup): -3.77 kJ

1A22 EA186A
sk_class (class of the SKEMPI experimental ΔΔG) [1, 3]: Neutral (neutral (little effect) 4.184 kJ/mol < ΔΔG > −4.184 kJ/mol) | sk_ddG_kJ (SKEMPI experimental ΔΔG, mutation to alanine) ([2]; sheet sortedByGroup): 0.00 kJ

1A22 FA10A
sk_class (class of the SKEMPI experimental ΔΔG) [1, 5]: Positive (positive (a hot residue) ΔΔG ≥ 4.184 kJ/mol) | sk_ddG_kJ (SKEMPI experimental ΔΔG of binding, mutation to alanine) [2]: 4.35 kJ

1A22 FA25A
sk_class (class of the SKEMPI experimental ΔΔG) [1, 5]: Neutral (neutral (little effect) 4.184 kJ/mol < ΔΔG > −4.184 kJ/mol) | sk_ddG_kJ (SKEMPI experimental ΔΔG of binding, mutation to alanine) [2]: -1.72 kJ

1A22 FA54A
sk_class (class of the SKEMPI experimental ΔΔG) [1, 5]: Neutral (neutral (little effect) 4.184 kJ/mol < ΔΔG > −4.184 kJ/mol) | sk_ddG_kJ (SKEMPI experimental ΔΔG of binding, mutation to alanine) [2]: 3.64 kJ

1A22 FA176A
sk_class (class of the SKEMPI experimental ΔΔG) [1, 5]: Positive (positive (a hot residue) ΔΔG ≥ 4.184 kJ/mol) | sk_ddG_kJ (SKEMPI experimental ΔΔG of binding, mutation to alanine) [2]: 7.95 kJ

1A22 FA191A
sk_class (class of the SKEMPI experimental ΔΔG) [1, 5]: Neutral (neutral (little effect) 4.184 kJ/mol < ΔΔG > −4.184 kJ/mol) | sk_ddG_kJ (SKEMPI experimental ΔΔG of binding, mutation to alanine) [2]: 0.79 kJ

1A22 HA21A
sk_class (class of the SKEMPI experimental ΔΔG) [1, 3]: Neutral (neutral (little effect) 4.184 kJ/mol < ΔΔG > −4.184 kJ/mol) | sk_ddG_kJ (SKEMPI experimental ΔΔG, mutation to alanine) ([2]; sheet sortedByGroup): 0.84 kJ

1A22 IA58A
sk_class (class of the SKEMPI experimental ΔΔG) [1, 5]: Positive (positive (a hot residue) ΔΔG ≥ 4.184 kJ/mol) | sk_ddG_kJ (SKEMPI experimental ΔΔG of binding, mutation to alanine) [2]: 6.86 kJ

1A22 IA179A
sk_class (class of the SKEMPI experimental ΔΔG) [1, 5]: Neutral (neutral (little effect) 4.184 kJ/mol < ΔΔG > −4.184 kJ/mol) | sk_ddG_kJ (SKEMPI experimental ΔΔG of binding, mutation to alanine) [2]: 3.35 kJ
